Values joined by “and” are separate entries in the source; they are usually repeats but may differ in a detail not shown here. Identical values can stand only once.
Experiments:
Assay in all cases: biochemical
Format in all cases: biochemical
various kinases [1] = target: various kinases (Homo sapiens, UniProt P21802); settings: FGFR2
various kinases [2] = target: various kinases (Homo sapiens, UniProt P36888, D835Y); settings: FLT3 D835Y
various kinases [3] = target: various kinases (Homo sapiens, UniProt P08069); settings: IGF1R
various kinases [4] = target: various kinases (Homo sapiens, UniProt P00519, E255K); settings: ABL1 E255K
various kinases [5] = target: various kinases (Homo sapiens, UniProt P25098); settings: ADRBK1 (GRK2)
Sequence of various kinases (Homo sapiens, UniProt P25098) (P25098 whole entry): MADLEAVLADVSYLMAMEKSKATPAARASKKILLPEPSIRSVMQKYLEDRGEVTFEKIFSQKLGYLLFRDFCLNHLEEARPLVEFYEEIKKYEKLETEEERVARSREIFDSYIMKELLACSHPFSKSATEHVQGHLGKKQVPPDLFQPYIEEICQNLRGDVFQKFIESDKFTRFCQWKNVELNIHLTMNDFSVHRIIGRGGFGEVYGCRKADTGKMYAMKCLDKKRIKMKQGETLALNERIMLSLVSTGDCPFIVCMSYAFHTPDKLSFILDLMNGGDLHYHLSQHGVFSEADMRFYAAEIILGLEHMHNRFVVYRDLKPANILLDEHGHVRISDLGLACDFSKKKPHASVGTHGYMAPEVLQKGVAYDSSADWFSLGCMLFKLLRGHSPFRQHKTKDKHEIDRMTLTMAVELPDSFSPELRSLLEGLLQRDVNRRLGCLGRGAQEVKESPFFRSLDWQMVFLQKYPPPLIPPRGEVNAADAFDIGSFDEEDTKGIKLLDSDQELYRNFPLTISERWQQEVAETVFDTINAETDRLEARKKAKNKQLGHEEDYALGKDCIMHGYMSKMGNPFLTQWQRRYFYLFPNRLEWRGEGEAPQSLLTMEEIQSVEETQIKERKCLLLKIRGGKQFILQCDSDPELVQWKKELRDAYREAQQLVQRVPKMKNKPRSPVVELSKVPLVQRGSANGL

various kinases [6] = target: various kinases (Homo sapiens, UniProt P21709); settings: EPHA1
various kinases [7] = target: various kinases (Homo sapiens, UniProt P00519, G250E); settings: ABL1 G250E
various kinases [8] = target: various kinases (Homo sapiens, UniProt Q9Y243); settings: AKT3 (PKB gamma)
various kinases [9] = target: various kinases (Homo sapiens, UniProt Q8IW41); settings: MAPKAPK5 (PRAK)
various kinases [10] = target: various kinases (Homo sapiens, UniProt P49674); settings: CSNK1E (CK1 epsilon)
Sequence of various kinases (Homo sapiens, UniProt P49674) (P49674 whole entry): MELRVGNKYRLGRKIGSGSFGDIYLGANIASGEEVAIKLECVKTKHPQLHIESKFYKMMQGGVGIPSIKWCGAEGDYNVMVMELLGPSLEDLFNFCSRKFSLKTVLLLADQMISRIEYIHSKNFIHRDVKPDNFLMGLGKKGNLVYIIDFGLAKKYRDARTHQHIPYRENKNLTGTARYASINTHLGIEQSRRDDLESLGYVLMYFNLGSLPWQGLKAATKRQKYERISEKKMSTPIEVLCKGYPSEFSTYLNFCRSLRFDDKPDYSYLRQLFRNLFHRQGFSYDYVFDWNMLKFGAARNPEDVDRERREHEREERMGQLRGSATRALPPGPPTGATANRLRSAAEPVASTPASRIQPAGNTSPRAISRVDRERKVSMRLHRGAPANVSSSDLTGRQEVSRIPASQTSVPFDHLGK

various kinases [11] = target: various kinases (Homo sapiens, UniProt P06213); settings: INSR
Sequence of various kinases (Homo sapiens, UniProt P06213) (P06213 28-1382): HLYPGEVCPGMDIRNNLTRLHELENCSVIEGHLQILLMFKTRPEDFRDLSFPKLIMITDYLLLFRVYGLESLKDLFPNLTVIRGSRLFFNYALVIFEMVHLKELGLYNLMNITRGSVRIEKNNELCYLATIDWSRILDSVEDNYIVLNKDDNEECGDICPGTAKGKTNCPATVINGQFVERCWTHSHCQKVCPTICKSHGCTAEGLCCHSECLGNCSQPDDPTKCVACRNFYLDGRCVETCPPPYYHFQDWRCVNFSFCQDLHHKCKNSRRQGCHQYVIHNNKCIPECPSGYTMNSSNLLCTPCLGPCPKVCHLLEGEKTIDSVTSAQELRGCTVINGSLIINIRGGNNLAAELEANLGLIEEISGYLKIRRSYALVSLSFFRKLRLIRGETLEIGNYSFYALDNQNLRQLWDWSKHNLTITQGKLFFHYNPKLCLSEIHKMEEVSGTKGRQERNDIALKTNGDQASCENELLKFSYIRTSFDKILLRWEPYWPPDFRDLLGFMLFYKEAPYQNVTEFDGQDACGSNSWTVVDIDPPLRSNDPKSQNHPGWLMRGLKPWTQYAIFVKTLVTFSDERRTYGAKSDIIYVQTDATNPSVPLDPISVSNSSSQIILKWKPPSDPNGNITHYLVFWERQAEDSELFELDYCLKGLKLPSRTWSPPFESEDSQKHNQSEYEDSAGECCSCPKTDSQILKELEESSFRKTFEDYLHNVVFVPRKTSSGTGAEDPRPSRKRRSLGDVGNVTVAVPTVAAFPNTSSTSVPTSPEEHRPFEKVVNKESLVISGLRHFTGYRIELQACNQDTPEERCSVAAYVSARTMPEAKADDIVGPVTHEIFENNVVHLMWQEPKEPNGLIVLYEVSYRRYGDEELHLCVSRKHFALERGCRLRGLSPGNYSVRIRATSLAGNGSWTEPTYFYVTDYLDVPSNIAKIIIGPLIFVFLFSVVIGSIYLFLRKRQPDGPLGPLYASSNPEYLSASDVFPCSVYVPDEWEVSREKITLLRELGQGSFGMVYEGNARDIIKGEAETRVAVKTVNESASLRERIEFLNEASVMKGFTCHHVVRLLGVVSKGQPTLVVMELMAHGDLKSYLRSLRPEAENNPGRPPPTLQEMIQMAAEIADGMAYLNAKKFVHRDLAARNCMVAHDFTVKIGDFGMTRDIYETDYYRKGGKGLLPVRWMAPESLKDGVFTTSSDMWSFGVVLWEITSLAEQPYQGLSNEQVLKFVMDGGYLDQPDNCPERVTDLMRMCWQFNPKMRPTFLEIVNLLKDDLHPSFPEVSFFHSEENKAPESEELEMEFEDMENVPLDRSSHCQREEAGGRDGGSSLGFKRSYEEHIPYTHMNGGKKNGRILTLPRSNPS

various kinases [12] = target: various kinases (Homo sapiens, UniProt O00506); settings: kinase STK25 (YSK1); ZLYTE
Sequence of various kinases (Homo sapiens, UniProt O00506) (O00506 whole entry): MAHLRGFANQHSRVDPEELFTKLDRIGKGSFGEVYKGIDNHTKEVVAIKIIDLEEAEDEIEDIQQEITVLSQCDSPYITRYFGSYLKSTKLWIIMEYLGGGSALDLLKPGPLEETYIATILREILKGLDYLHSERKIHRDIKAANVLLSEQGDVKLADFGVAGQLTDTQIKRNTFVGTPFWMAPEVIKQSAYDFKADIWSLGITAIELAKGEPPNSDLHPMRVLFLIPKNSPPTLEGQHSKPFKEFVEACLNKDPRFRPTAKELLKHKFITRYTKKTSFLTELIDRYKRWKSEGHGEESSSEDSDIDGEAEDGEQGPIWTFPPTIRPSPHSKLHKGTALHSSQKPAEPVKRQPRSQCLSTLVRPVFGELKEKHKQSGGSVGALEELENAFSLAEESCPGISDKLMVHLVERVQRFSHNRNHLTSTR

various kinases [13] = target: various kinases (Homo sapiens, UniProt Q96RG2); settings: PASK
various kinases [14] = target: various kinases (Homo sapiens, UniProt Q5VT25); settings: CDC42 BPA (MRCKA)
various kinases [15] = target: various kinases (Homo sapiens, UniProt Q9P289); settings: MST4
Sequence of various kinases (Homo sapiens, UniProt Q9P289) (Q9P289 whole entry): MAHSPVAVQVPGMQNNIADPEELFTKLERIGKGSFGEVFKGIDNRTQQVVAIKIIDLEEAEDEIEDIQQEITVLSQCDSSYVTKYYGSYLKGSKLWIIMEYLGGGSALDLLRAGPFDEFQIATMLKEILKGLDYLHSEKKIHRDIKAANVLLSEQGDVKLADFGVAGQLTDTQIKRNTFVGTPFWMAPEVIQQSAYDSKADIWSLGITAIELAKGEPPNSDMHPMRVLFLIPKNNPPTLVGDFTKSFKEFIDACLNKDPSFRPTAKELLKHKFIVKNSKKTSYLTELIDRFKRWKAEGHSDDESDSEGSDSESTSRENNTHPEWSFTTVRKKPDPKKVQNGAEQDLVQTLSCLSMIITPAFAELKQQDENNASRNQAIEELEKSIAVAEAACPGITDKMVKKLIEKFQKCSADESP

various kinases [16] = target: various kinases (Homo sapiens, UniProt O60674, V617F); settings: JAK2 JH1 JH2 V617F
Sequence of various kinases (Homo sapiens, UniProt O60674, V617F) (O60674 whole entry V617F): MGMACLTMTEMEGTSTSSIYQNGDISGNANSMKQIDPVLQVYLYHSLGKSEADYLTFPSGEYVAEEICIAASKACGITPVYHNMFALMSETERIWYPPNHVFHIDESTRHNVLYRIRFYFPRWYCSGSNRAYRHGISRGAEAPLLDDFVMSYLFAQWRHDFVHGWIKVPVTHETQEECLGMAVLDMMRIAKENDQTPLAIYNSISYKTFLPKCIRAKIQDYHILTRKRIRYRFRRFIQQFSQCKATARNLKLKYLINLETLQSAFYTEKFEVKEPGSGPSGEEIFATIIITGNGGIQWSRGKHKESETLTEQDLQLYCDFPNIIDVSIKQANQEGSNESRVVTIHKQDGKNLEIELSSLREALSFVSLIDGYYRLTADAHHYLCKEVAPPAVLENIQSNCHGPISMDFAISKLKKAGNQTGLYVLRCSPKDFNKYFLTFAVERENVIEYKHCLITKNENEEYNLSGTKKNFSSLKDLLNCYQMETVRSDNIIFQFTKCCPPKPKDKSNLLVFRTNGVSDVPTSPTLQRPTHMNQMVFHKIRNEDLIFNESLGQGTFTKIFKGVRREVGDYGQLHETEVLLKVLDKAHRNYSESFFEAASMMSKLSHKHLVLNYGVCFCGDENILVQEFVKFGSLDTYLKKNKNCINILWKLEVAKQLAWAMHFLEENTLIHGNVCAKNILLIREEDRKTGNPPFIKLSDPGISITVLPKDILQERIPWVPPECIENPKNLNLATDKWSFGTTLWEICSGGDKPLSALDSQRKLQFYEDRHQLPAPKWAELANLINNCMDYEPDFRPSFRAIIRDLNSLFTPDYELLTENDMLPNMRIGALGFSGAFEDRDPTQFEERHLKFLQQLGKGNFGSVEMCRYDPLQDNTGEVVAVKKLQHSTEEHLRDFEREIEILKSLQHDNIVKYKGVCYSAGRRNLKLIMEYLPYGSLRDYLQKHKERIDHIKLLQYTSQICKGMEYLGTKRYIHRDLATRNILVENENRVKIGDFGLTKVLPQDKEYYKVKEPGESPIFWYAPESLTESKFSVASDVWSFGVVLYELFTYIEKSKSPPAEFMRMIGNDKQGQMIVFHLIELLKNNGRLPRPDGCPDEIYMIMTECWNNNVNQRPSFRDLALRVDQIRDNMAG

various kinases [17] = target: T1, various kinases (Homo sapiens, UniProt Q9BXA7); settings: kinase STK22D (TSSK1); ZLYTE
T1 sequence (Q9BXA7 1-367): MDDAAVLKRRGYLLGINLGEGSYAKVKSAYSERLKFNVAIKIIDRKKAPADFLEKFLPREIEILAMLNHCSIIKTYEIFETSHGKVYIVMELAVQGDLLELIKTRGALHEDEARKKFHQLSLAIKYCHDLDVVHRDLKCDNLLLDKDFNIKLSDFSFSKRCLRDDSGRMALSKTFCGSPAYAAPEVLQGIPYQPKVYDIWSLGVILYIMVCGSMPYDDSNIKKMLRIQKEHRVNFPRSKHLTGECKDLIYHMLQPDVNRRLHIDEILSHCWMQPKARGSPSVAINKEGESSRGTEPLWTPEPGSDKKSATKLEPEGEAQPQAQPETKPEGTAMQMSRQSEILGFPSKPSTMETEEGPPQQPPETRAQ

various kinases [18] = target: various kinases (Homo sapiens, UniProt P27361); settings: MAPK3 (ERK1)
various kinases [19] = target: various kinases (Homo sapiens, UniProt P78527); settings: DNA-PK
various kinases [20] = target: various kinases (Homo sapiens, UniProt P06239); settings: LCK
various kinases [21] = settings: for % Inhibition Average / % Inhibition Duplicate #1 / % Inhibition Duplicate #2: ZLYTE
various kinases [22] = target: various kinases (Homo sapiens, UniProt P00533, G719S); settings: EGFR (ErbB1) G719S
various kinases [23] = target: T2, various kinases (Homo sapiens, UniProt O00141); settings: kinase SGK (SGK1); ZLYTE
T2 sequence (O00141 1-431): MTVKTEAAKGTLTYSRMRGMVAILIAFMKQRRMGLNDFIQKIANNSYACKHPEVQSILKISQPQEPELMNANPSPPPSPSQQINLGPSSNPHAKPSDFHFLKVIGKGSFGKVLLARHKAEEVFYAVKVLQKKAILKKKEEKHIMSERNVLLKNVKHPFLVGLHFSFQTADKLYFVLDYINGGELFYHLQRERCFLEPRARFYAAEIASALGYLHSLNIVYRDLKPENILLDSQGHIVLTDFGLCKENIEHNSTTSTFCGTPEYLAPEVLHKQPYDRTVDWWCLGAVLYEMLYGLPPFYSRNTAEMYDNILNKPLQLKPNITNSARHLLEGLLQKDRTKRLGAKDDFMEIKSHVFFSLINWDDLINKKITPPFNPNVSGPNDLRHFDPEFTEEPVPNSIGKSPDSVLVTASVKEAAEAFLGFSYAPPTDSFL

various kinases [24] = target: various kinases (Homo sapiens, UniProt Q9Y463); settings: DYRK1B
various kinases [25] = target: various kinases (Homo sapiens, UniProt P00533, L861Q); settings: EGFR (ErbB1) L861Q
various kinases [26] = target: various kinases (Homo sapiens, UniProt P43250); settings: GRK6
various kinases [27] = target: various kinases (Homo sapiens, UniProt P22607, K650E); settings: FGFR3 K650E
various kinases [28] = target: various kinases (Homo sapiens, UniProt Q9UQM7); settings: CAMK2A (CaMKII alpha)
Sequence of various kinases (Homo sapiens, UniProt Q9UQM7) (Q9UQM7 whole entry): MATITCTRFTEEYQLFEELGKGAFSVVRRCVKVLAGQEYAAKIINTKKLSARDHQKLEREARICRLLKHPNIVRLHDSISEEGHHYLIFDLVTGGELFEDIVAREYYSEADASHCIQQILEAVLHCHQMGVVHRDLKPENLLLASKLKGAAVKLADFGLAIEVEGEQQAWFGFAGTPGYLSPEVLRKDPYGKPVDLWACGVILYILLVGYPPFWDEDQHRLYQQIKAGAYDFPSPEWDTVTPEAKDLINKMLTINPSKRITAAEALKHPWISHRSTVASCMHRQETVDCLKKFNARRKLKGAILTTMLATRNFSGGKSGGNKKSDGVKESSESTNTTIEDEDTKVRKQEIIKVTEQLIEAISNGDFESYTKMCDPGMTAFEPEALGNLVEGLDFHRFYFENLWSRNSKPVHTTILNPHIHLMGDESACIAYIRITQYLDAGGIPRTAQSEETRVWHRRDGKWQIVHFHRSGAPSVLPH

For `COc1ccc2c(c1)[C@]1(C[C@H]1c1ccc3c(/C=C/c4ccc(CN5C[C@@H](C)O[C@@H](C)C5)cc4)n[nH]c3c1)C(=O)N2` [CFI-400945], the “% Inhibition” value (various kinases [1]) was 55% and 58%, the “% Inhibition” value (various kinases [2]) was 27% and 29% and the “% Inhibition” value (various kinases [3]) was 8%. For the same molecule, the “% Inhibition” value (various kinases [4]) was 39% and 36%, the “% Inhibition” value (various kinases [5]) was 5% and 4% and the “% Inhibition” value (various kinases [6]) was 20% and 26%. For the same molecule, the “% Inhibition” value (various kinases [7]) was 45% and 42%, the “% Inhibition” value (various kinases [8]) was 3% and 4% and the “% Inhibition” value (various kinases [9]) was 2% and 4%. The “% Inhibition” value (various kinases [10]) was 7% and 6%, the “% Inhibition” value (various kinases [11]) was 4% and 10% and the “% Inhibition Average” value (various kinases [12]) was -3%. For the same molecule, the “% Inhibition Duplicate #1” value (various kinases [12]) was 0%, the “% Inhibition Duplicate #2” value (various kinases [12]) was -6% and the “% Inhibition” value (various kinases [13]) was 7% and 2%. For the same molecule, the “% Inhibition” value (various kinases [14]) was 3% and 10%, the “% Inhibition” value (various kinases [15]) was 14% and 10% and the “% Inhibition” value (various kinases [16]) was 8% and 9%. For the same molecule, the “% Inhibition Average” value (various kinases [17]) was 6%, the “% Inhibition Duplicate #1” value (various kinases [17]) was 7% and the “% Inhibition Duplicate #2” value (various kinases [17]) was 5%. For the same molecule, the “% Inhibition” value (various kinases [18]) was 4%, the “% Inhibition” value (various kinases [19]) was 3% and 1% and the “% Inhibition” value (various kinases [20]) was 39% and 40%. For the same molecule, the “% Inhibition” value (various kinases [21]; LYN B) was 7% and 9%, the “% Inhibition Average” value (various kinases [21]; kinase PRKCB2 (PKC beta II)) was 13% and the “% Inhibition Duplicate #1” value (various kinases [21]; kinase PRKCB2 (PKC beta II)) was 12%. The “% Inhibition Duplicate #2” value (various kinases [21]; kinase PRKCB2 (PKC beta II)) was 14%, the “% Inhibition Average” value (various kinases [21]; kinase SRC N1) was 14% and the “% Inhibition Duplicate #1” value (various kinases [21]; kinase SRC N1) was 14%. For the same molecule, the “% Inhibition Duplicate #2” value (various kinases [21]; kinase SRC N1) was 14%, the “% Inhibition” value (various kinases [22]) was 5% and the “% Inhibition Average” value (various kinases [23]) was 8%. For the same molecule, the “% Inhibition Duplicate #1” value (various kinases [23]) was 9%, the “% Inhibition Duplicate #2” value (various kinases [23]) was 7% and the “% Inhibition” value (various kinases [24]) was -1% and -5%. For the same molecule, the “% Inhibition” value (various kinases [25]) was 3% and 0%, the “% Inhibition” value (various kinases [26]) was 5% and the “% Inhibition” value (various kinases [27]) was 38% and 44%. For the same molecule, the “% Inhibition” value (various kinases [28]) was -3% and -1%.
